From publication PMC467089, “Click estradiol dimers with novel aromatic bridging units: synthesis and anticancer evaluation” (Journal of Enzyme Inhibition and Medicinal Chemistry, 2024)

Tests used:
CCRF-CEM lymphoblasts [1] = experiment: BrU incorporation analysis (RNA synthesis); type: cell-based, human
Experimental: (§1) To further characterise the mode of action of studied compounds, we analysed the cell cycle profile of CCRF-CEM cells treated with compounds for 24 h. […] The compounds ED1–ED9 and ED12 induced arrest in G2/M phase of the cell cycle (Figure 2(A)). To differentiate between G2 block and mitotic arrest, we used phospho-histone H3 (Ser10) mitotic marker (Figure 2(B)). […] Generally, dimers induced a dose-dependent increase of sub G1 cell population with fragmented DNA except for ED2 and ED4 (Figure 2(C)). […] To assess the proliferation of treated cells, they were subjected to 5-bromo-2-deoxyuridine (BrDU) labelling. […] Analogously, changes in 5-bromouridine (BrU) incorporation were examined to monitor overall RNA synthesis.
Prior to the trypsinisation, cells were treated with 1 mM BrU for 30 min. Subsequently, the cells were fixed in 1% paraformaldehyde with 0.05% of NP-40 for 15 min at RT and stored overnight at 4 °C. Fixed cells were washed with 1% glycine in PBS and stained with primary anti-BrdU antibody clone MoBu-1 crossreacting with BrU (Exbio, Vestec, Czech Republic) for 30 min at RT, washed with PBS and labelled with secondary anti-mouse-FITC antibody (Sigma-Aldrich, St. Louis, MO). Following 1-h incubation in 1% paraformaldehyde containing 0.05% NP-40, cells were stained with propidium iodide (0.1 mg/mL) and treated with RNase A (0.5 mg/mL) for 1 h at RT. The percentage of BrU positive cells was quantified using CellQuest software.

CCRF-CEM lymphoblasts [2] = experiment: Cell cycle analysis by flow cytometry (propidium iodide); type: cell-based, human
Experimental: as §1
(§2) Treated CCRF-CEM cells were harvested, washed with ice-cold phosphate-buffered saline (PBS), fixed in cold 70% ethanol and stored at −20 °C. Prior to analysis, fixed cells were permeabilised with 0.25% Triton X-100 in PBS for 15 min, blocked in 1% bovine serum, and incubated with anti-phospho-Histone H3 (Ser^10) antibody (Merck Millipore, Burlington, MA). Subsequently, the cells were treated with 50 μg/mL RNAse, stained with propidium iodide and analysed by FACSCalibur (Becton Dickinson, Franklin Lakes, NJ) flow cytometer at 488 nm. Cell cycle distribution (G1, S, and G2/M) was analysed using ModFitLT software (Verity, Topsham, ME), and reflects only viable population prior to the fixing procedure. Particles with lower propidium iodide content than G1 phase cells were classified as non-viable cells with fragmented DNA. Flow cytometry data visualisation was performed using OriginPro 2018b (b9.5.5.409) software (OriginLab Corporation, Northampton, MA)[10].

[3] = tested on: HCT116 (colorectal adenocarcinoma); experiment: MTS cytotoxicity assay, HCT116; type: cell-based; settings: Homo sapiens, HCT-116, 72 h, read-out: IC50 cytotoxic activity HCT116
Outline: (§3)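 Overnight-seeded cells → fourfold serial compound dilutions (DMSO) → 72 h, 37 °C, 5% CO2 → MTS added. Duplicates ×3 biological reps.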

U2OS (osteosarcoma) = experiment: MTS cytotoxicity assay, U2OS; type: cell-based, human; settings: for IC50: Homo sapiens, U2OS, 72 h, read-out: IC50 cytotoxic activity U2OS
Outline: (§4)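 MTS read-out after 72 h compound exposure at 37 °C. Cells plated the day before, treated with fourfold serial dilutions from DMSO stocks; duplicate wells, three independent experiments.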

porcine brain tubulin = target: T1, porcine brain tubulin (Sus scrofa, UniProt P02550+P02554); experiment: Tubulin polymerisation assay; type: biochemical; settings: 10 μmol/L, Vmax relative to DMSO
T1 construct: purchased Cytoskeleton, Denver, CO; host or cells: porcine brain (tissue-purified)
T1 sequence (P02550 whole entry): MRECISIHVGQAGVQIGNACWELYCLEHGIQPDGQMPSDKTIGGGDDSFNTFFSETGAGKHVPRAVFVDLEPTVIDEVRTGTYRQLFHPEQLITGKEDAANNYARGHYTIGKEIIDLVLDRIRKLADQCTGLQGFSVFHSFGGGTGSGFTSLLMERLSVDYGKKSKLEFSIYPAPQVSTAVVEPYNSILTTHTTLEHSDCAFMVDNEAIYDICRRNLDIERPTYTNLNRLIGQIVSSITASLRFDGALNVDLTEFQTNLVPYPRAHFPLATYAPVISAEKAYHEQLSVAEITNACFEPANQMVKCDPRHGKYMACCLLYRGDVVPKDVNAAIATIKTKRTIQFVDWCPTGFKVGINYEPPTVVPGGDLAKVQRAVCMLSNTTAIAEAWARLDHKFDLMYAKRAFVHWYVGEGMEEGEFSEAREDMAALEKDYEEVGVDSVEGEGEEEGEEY
T1 sequence (P02554 whole entry): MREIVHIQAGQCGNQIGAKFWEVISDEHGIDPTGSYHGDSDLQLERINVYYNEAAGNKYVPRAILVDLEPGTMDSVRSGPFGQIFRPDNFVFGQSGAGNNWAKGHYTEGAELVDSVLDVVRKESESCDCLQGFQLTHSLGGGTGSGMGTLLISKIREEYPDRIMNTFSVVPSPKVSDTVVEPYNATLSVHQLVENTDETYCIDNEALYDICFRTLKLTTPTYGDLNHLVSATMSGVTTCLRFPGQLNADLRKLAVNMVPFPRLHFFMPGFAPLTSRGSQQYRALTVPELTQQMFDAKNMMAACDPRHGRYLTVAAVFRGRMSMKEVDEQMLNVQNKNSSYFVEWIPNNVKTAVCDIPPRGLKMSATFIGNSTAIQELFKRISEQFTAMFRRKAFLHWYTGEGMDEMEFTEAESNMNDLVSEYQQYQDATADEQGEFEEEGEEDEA
Outline: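 Polymerisation of >99% pure porcine brain tubulin followed at 37 °C with a commercial kit, with test compounds at 10 μmol/L or DMSO. Maximum polymerisation velocity (Vmax) derived from the polymerisation curves.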

[4] = tested on: K562 (chronic myelogenous leukaemia); experiment: MTS cytotoxicity assay, K562; type: cell-based; settings: Homo sapiens, K562, 72 h, read-out: IC50 cytotoxic activity K562
Outline: as §3

[5] = tested on: A549 (lung adenocarcinoma); experiment: MTS cytotoxicity assay, A549; type: cell-based, human; settings: for IC50: Homo sapiens, A549, 72 h, read-out: IC50 cytotoxic activity A549
Outline: as §4

[6] = tested on: CEM-DNR (daunorubicin resistant variant of CCRF-CEM); experiment: MTS cytotoxicity assay, CEM-DNR; type: cell-based, human; settings: for IC50: Homo sapiens, CEM-DNR, 72 h, read-out: IC50 cytotoxic activity CEM-DNR
Outline: as §4

[7] = tested on: CCRF-CEM (childhood T-cell acute lymphoblastic leukaemia); experiment: MTS cytotoxicity assay, CCRF-CEM; type: cell-based; settings: Homo sapiens, 72 h, read-out: IC50 cytotoxic activity CCRF-CEM
Experimental: (§5) The p53 deficient variant, HCT116p53−/−, was purchased from Horizon Discovery (Cambridge, UK). The daunorubicin-resistant CCRF-CEM cell line CEM-DNR bulk and paclitaxel-resistant K562-TAX sublines were developed in-house by exposing parental cell lines to escalating concentrations of daunorubicin and paclitaxel, respectively. Cells were maintained in the recommended culture medium (Sigma-Aldrich, St. Louis, MO) supplemented with 10% foetal calf serum, 100 U/mL penicillin, and 100 μg/mL streptomycin. The HUVEC line was obtained from PromoCell (Heidelberg, Germany). The cells were cultured in endothelial cell growth medium with SupplementMix for endothelial cells (PromoCell, Heidelberg, Germany). The incubation conditions were a humidified atmosphere of 95% air and 5% CO2 at 37 °C[10]. Cells were seeded in 384-well plates and after overnight incubation treated with compounds. All tested compounds were dissolved in 100% DMSO, and fourfold serial dilutions were performed using an Echo550 liquid handler (Labcyte, San Jose, CA). The experiments were performed in technical duplicates and three biological replicates. Cells were incubated with compounds for 72 h and thereafter 5 μL of MTS reagent was added to each well.

CCRF-CEM lymphoblasts [8] = experiment: BrDU incorporation analysis (DNA synthesis); type: cell-based, human
Experimental: as §1
Thirty minutes before harvesting, cells were pulse-labelled with 10 μM BrDU. After overnight fixation in ice-cold 70% ethanol, cells were resuspended in 2 M HCl for 30 min at room temperature (RT), then washed with 0.1 M Na2B4O7 and blocked with PBS containing 0.5% Tween-20 and 1% BSA. BrDU incorporation was analysed using anti-BrdU antibody clone MoBu-1 (Exbio, Vestec, Czech Republic) and a secondary anti-mouse-FITC antibody (Sigma-Aldrich, St. Louis, MO). Cells were washed with PBS and stained with 0.1 mg/mL propidium iodide and 0.5 mg/mL RNase A for 1 h at RT and analysed by flow cytometry using a 488 nm single beam laser (FACSCalibur, Becton Dickinson, Franklin Lakes, NJ). The percentage of cells with incorporated BrDU was analysed using CellQuest software.

[9] = MTS cytotoxicity assay, BJ; type: cell-based; settings: human
Outline: as §4

[10] = MTS cytotoxicity assay, MRC-5; type: cell-based; settings: human
Outline: as §3

[11] = tested on: K562-TAX (paclitaxel-resistant variant of K562); experiment: MTS cytotoxicity assay, K562-TAX; type: cell-based, human; settings: for IC50: Homo sapiens, K562-Tax, 72 h, read-out: IC50 cytotoxic activity K562-TAX
Outline: as §4

[12] = tested on: HCT116p53−/− (p53 gene null variant of HCT116); experiment: MTS cytotoxicity assay, HCT116p53−/−; type: cell-based; settings: Homo sapiens, HCT-116, 72 h, read-out: IC50 cytotoxic activity HCT116p53-
Outline: as §3

[13] = MTS cytotoxicity assay, HUVEC; type: cell-based; settings: human
Experimental: as §5

CCRF-CEM lymphoblasts [14] = experiment: Phospho-histone H3 (Ser10) mitotic marker, flow cytometry; type: cell-based, human
Experimental: as §1, §2

| SMILES | BrU, % of positive cells (CCRF-CEM lymphoblasts [1]; 1×IC50, 24 h) | BrU, % of positive cells (CCRF-CEM lymphoblasts [1]; 5×IC50, 24 h) | <G1 (sub-G1, fragmented DNA), % of positive cells (CCRF-CEM lymphoblasts [2]; 1×IC50, 24 h) | >G2/M (polyploidy), % of positive cells (CCRF-CEM lymphoblasts [2]; 1×IC50, 24 h) | G0/G1, % of positive cells (CCRF-CEM lymphoblasts [2]; 1×IC50, 24 h) | G2/M, % of positive cells (CCRF-CEM lymphoblasts [2]; 1×IC50, 24 h) | S, % of positive cells (CCRF-CEM lymphoblasts [2]; 1×IC50, 24 h) | <G1 (sub-G1, fragmented DNA), % of positive cells (CCRF-CEM lymphoblasts [2]; 5×IC50, 24 h) | >G2/M (polyploidy), % of positive cells (CCRF-CEM lymphoblasts [2]; 5×IC50, 24 h) | G0/G1, % of positive cells (CCRF-CEM lymphoblasts [2]; 5×IC50, 24 h) | G2/M, % of positive cells (CCRF-CEM lymphoblasts [2]; 5×IC50, 24 h) | S, % of positive cells (CCRF-CEM lymphoblasts [2]; 5×IC50, 24 h) | IC50 [3] | IC50 (U2OS (osteosarcoma)) | inhibitory activity against tubulin polymerisation (in words) (porcine brain tubulin) | IC50 [4] | IC50 [5] | IC50 [6] | IC50 [7] | BrDU, % of positive cells (CCRF-CEM lymphoblasts [8]; 1×IC50, 24 h) | other results |
| --- | --- | --- | --- | --- | --- | --- | --- | --- | --- | --- | --- | --- | --- | --- | --- | --- | --- | --- | --- | --- | --- |
| CC(=O)Oc1cc(Cn2cc([C@]3(O)CC[C@H]4[C@@H]5CCc6cc(O)ccc6[C@H]5CC[C@@]43C)nn2)cc(Cn2cc([C@]3(O)CC[C@H]4[C@@H]5CCc6cc(O)ccc6[C@H]5CC[C@@]43C)nn2)c1 [ED4, 3,5-Bis({4-[(17β)-3,17-dihydroxyestra-1,3,5(10)-trien-17-yl]-1H-1,2,3-triazol-1-yl}methyl)phenyl acetate] | 66.58% | 3.26% | 61.81% | 6.75% | 25.61% | 40.50% | 33.89% | 31.27% | 10.24% | 8.75% | 71.41% | 19.84% | 2060 ± 180 nM | > 50000 nM | comparable or better inhibitory activity | 490 ± 40 nM | > 50000 nM | > 50000 nM | 1090 ± 110 nM | 26.50% | IC50 cytotoxic activity U2OS (U2OS (osteosarcoma)): did not exhibit activity; IC50 cytotoxic activity A549 [5]: did not exhibit activity; BrDU, % of positive cells (CCRF-CEM lymphoblasts [8]; 5×IC50, 24 h): 7.16%; IC50 at 72 h [9]: > 50000 nM; IC50 at 72 h [10]: > 50000 nM; IC50 [11]: > 50000 nM; IC50 [12]: 2150 ± 100 nM; IC50 at 72 h [13]: 16 ± 6 nM; mitosis-specific phosphorylation of histone H3 (in words) (CCRF-CEM lymphoblasts [14]; 1× and 5×IC50, 24 h): did not induce an increase of mitosis-specific phosphorylation of histone H3; pH3Ser10, % of positive cells (CCRF-CEM lymphoblasts [14]; 1×IC50, 24 h): 1.25%; pH3Ser10, % of positive cells (CCRF-CEM lymphoblasts [14]; 5×IC50, 24 h): 0.12% |
| COc1c(Cn2cc([C@]3(O)CC[C@H]4[C@@H]5CCc6cc(O)ccc6[C@H]5CC[C@@]43C)nn2)cc(C)cc1Cn1cc([C@]2(O)CC[C@H]3[C@@H]4CCc5cc(O)ccc5[C@H]4CC[C@@]32C)nn1 [ED8, (17β,17′β)-17,17′-[(2-Methoxy-5-methylbenzene-1,3-diyl)bis(methanediyl-1H-1,2,3-triazole-1,4-diyl)]bisestra-1,3,5(10)-triene-3,17-diol] | 59.19% | 3.11% | 16.29% | 7.25% | 34.59% | 31.94% | 33.47% | 24.86% | 10.51% | 4.71% | 78.93% | 16.36% | 1770 ± 160 nM | 6930 ± 1160 nM | comparable or better inhibitory activity | 690 ± 150 nM | > 50000 nM | 3440 ± 690 nM | 1380 ± 180 nM | 45.06% | IC50 cytotoxic activity CEM-DNR [6]: maintained its activity; BrDU, % of positive cells (CCRF-CEM lymphoblasts [8]; 5×IC50, 24 h): 5.15%; IC50 at 72 h [9]: > 50000 nM; IC50 at 72 h [10]: > 50000 nM; IC50 cytotoxic activity K562-TAX [11]: sensitive; IC50 [11]: 13100 ± 3690 nM; IC50 [12]: 2010 ± 120 nM; IC50 at 72 h [13]: 79 ± 48 nM; pH3Ser10, % of positive cells (CCRF-CEM lymphoblasts [14]; 1×IC50, 24 h): 11.01%; pH3Ser10, % of positive cells (CCRF-CEM lymphoblasts [14]; 5×IC50, 24 h): 0.63% |
